# Laboratory results reported in publication PMC12024213, “Mechanism Insight of Cell Death Signaling by Thymol Derivatives on Trypanosomatidae Protozoan Parasites” (Antibiotics, 2025).
# Like-named read-outs stand apart in the source and are kept apart here.
# Legend:
# [1] = tested on: L. amazonensis promastigotes; test: Hoechst/PI double stain, chromatin condensation, L. amazonensis; assay type: cell-based, Leishmania amazonensis; settings: IC90, 24 h
# Text: To identify the type of cell death occurring in both kinetoplastids after treatment, Hoechst 33342 and propidium iodide (PI) dyes were used. Even though both dyes are DNA affine, the Hoechst 33342 stain is cell permeable and known to distinguish apoptotic cells from healthy or necrotic cells, whereas the PI is cell impermeable and stain dead cells as late apoptotic or necrosis. After treatment, three types of staining could be observed: blue fluorescence for cells undergoing apoptosis, violet color as the merge of blue and red fluorescence for late apoptotic cells, and red color for dead cells.
# L. amazonensis [2] = test: ATP level, CellTiter-Glo, L. amazonensis; assay type: cell-based, Leishmania amazonensis; settings: IC90, 24 h, luminescence
# Method: The adenosine triphosphate (ATP) level was measured using the CellTiter-Glo Luminescent Cell Viability Assay (Promega, Madrid, Spain). The mitochondria in which most cellular oxidations occur is considered the main source of cell’s ATP; any damage and/or malfunction of this organelle generate the depletion of ATP levels.
# T. cruzi [3] = tested on: T. cruzi
# Method: (§1) The effect of derivatives 9 and 10 to modulate cell features was studied in the tested protozoa parasites, using various specific commercial kits. Parasite cells were incubated with the derivative at the previously calculated IC90 for 24 h. Subsequently, cells were washed and submitted to different treatments as mentioned by the manufacturer’s instructions. In all the assays, a plate reader EnSpire Multimode Plate Reader® and/or an image base system fluorescence microscope EVOS M5000 were used for the fluorescence intensity quantification. For each protocol, images of representative population cells were obtained using an inverted confocal microscope Leica DMI 4000 B with LAS X software, and Leica HC PL APO 63×/1.40 OIL CS2 Objective (Barcelona, Spain). The SYTOX™ Green (Life Technologies, Madrid, Spain), a cell impermeable DNA binding stain, was used to evaluate the membrane permeability and integrity. The assay was conducted as detailed in the manufacture instructions, and as previously described.
# L. amazonensis [4] = tested on: L. amazonensis
# Method: as §1
# [5] = alamarBlue assay on T. cruzi epimastigotes; assay type: cell-based, Trypanosoma cruzi; settings: mouse; CC50 J774.A1 / IC50 T. cruzi epimastigotes; read-out: Selectivity Trypanosoma SI (CC50/IC50)
# Method: (§2) In a 96-well plate, a serial dilution of the tested derivatives was performed in liver infusion tryptose medium supplemented with 10% heat inactivated fetal bovine serum. Later, 100 µL of 5 × 10^5 cells/mL of epimastigotes was added to each well. Afterwards, 20 µL of alamarBlue® was added to each well, and the plate was maintained at 26 °C for 72 h.
# (§3) Cytotoxicity effect of the tested derivatives was conducted using macrophages of the murine cell line J774.A1 (American Type Culture Collection #TIB-67, city, country), as previously described. The cells were maintained in DMEM at 37 °C in a 5% CO2 humidified incubator. All the plates containing alamarBlue® were analyzed using a plate reader EnSpire Multimode Plate Reader® at excitation and emission wavelengths of 570 and 585 nm, respectively (PerkinElmer, ThermoFisher Scientific, Madrid, Spain). The IC50 (concentrations able to inhibit 50% of parasites), IC90 (concentrations able to inhibit 90% of parasites), and CC50 (concentration able to inhibit 50% of murine macrophages) values were determined for each compound by nonlinear regression using GraphPad software.
# T. cruzi epimastigotes [6] = test: alamarBlue assay on T. cruzi epimastigotes; assay type: cell-based, Trypanosoma cruzi; settings: Trypanosoma cruzi
# Method: as §2, §3
# L. amazonensis [7] = test: Atomic force microscopy, L. amazonensis; assay type: cell-based, Leishmania amazonensis; settings: IC90, 12 and 24 h
# Method: (§4) […] After incubation, cells were washed twice with PBS, and 10 µL of a 10^5 cells/mL suspension was smeared onto glass slides. Prior to AFM analysis, samples were dried for 10 min. AFM topographic images were acquired in Peak Force mode using a multimode microscope equipped with a Nanoscope V control unit (Bruker). Scans were performed at rates of 0.5–1.2 Hz, employing FESP tips (50–100 kHz, 1–5 N/m) from Bruker. The damage caused by derivative 9 in both parasites was assessed by recording images at scales ranging from 100 µm × 100 µm to 0.6 µm × 0.6 µm, with a resolution of 512 points per line.
# T. cruzi [8] = test: Atomic force microscopy, T. cruzi; assay type: cell-based, Trypanosoma cruzi; settings: IC90, 12 and 24 h
# Method: as §4
# T. cruzi [9] = test: Intracellular ROS, CellROX Deep Red, T. cruzi; assay type: cell-based, Trypanosoma cruzi; settings: 24 h incubation
# Method: (§5) The measure of reactive oxygen species (ROS) was measured after treatment of 24 h using CellROX® Deep Red fluorescent probe (Invitrogen, Madrid, Spain). The mitochondria constitute an essential organelle to neutralize the reactive oxygen species; the malfunction of this organelle would generate an imbalance between the antioxidants and the reactive oxygen.
# L. amazonensis [10] = test: Intracellular ROS, CellROX Deep Red, L. amazonensis; assay type: cell-based, Leishmania amazonensis; settings: 24 h incubation
# Method: as §5
# T. cruzi epimastigotes [11] = test: Mitochondrial membrane potential, JC-1, T. cruzi; assay type: cell-based, Trypanosoma cruzi; settings: JC-1 red/green ratio, IC90, 24 h
# Method: The measurement of mitochondrial membrane potential was carried out using the JC-1 assay. JC-1 is a mitochondria-specific stain whose fluorescence emission depends on the mitochondrial membrane potential. In healthy mitochondria, JC-1 aggregates and emits red fluorescence, whereas in unhealthy mitochondria, it remains in monomeric form and emits green fluorescence. […] The assay was performed according to the manufacturer’s instructions, as detailed in a previous study.
# [12] = 72 h, epimastigotes, alamarBlue, 72 h at 26 °C, mean ± SD, triplicates, read-out: T. cruzi Epimastigote IC50
Compound,chromatin condensation (Hoechst/PI staining) [1],decrease of ATP production compared to negative control (L. amazonensis [2]) [%],plasma membrane permeability (SYTOX Green) (T. cruzi [3]),plasma membrane permeability (SYTOX Green) (L. amazonensis [4]),selectivity ratio [5],IC50 (T. cruzi epimastigotes [6]; [12]) [µM],"IC50 (T. cruzi epimastigotes [6]; abstract, stage not stated, read-out: IC50 against T. cruzi (abstract)) [µM]",morphological effects (AFM) (L. amazonensis [7]),morphological effects (AFM) (T. cruzi [8]),intracellular ROS (CellROX Deep Red) (T. cruzi [9]),intracellular ROS (CellROX Deep Red) (L. amazonensis [10]),decrease of mitochondrial membrane potential (ΔΨm) (T. cruzi epimastigotes [11]) [%]
"Cc1ccc(C(C)C)c(OC(=O)c2ccccn2)c1 [Derivative 10, thymyl picolinate]",increasing the chromatin condensation,67,greater damage to membrane permeability,greater damage to membrane permeability,7.2,35.5 ± 2.5,25.2,,,,,
"COc1ccc(C(=O)Oc2cc(C)ccc2C(C)C)cc1 [Derivative 9, thymyl anysoate]",increasing the chromatin condensation,84,,,> 11.2,26.8 ± 2.2,,induced the formation of giant vacuoles in the cytoplasm,induced the formation of giant vacuoles in the cytoplasm,induced oxidative stress,induced oxidative stress,70
